Experimental data as given in ChEMBL document CHEMBL5291721, “A preclinical secondary pharmacology resource illuminates target-adverse drug reaction associations of marketed drugs” (Nat Commun, 2023).

Experiments:
[1] = molecular target: Vascular endothelial growth factor receptor 2 (Homo sapiens, UniProt P35968); type: functional
[2] = molecular target: T1, Amine oxidase [flavin-containing] A (Homo sapiens, UniProt P21397); type: functional
T1 sequence (P21397 whole entry): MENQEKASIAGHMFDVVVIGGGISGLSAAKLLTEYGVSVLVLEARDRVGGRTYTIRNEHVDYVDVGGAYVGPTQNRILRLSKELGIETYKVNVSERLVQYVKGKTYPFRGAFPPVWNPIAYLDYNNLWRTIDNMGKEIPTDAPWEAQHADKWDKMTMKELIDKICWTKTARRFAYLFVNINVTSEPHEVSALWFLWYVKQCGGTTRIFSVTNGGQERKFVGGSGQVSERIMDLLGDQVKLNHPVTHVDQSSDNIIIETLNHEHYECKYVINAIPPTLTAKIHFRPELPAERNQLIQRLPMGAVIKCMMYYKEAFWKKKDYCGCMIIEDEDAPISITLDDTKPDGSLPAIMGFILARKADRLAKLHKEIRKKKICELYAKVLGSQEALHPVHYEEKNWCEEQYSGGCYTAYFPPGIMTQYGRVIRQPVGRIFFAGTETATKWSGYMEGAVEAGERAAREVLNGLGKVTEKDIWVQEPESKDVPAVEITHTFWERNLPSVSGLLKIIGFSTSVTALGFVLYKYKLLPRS

[3] = molecular target: T2, Thromboxane A2 receptor (Homo sapiens, UniProt P21731); type: functional, cell-based
T2 sequence (P21731 whole entry): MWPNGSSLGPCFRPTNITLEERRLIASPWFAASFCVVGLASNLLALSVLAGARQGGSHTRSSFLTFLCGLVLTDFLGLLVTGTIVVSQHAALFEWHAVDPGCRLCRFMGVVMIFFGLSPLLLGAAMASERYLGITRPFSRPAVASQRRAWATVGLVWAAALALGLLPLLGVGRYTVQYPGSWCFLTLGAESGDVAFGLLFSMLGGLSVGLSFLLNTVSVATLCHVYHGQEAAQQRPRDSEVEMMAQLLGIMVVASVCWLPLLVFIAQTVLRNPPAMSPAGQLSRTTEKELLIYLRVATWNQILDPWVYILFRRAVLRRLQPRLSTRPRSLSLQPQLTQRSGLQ

[4] = molecular target: Beta-1 adrenergic receptor (Homo sapiens, UniProt P08588); type: functional
[5] = molecular target: Vasopressin V1a receptor (Homo sapiens, UniProt P37288)
[6] = molecular target: Gamma-aminobutyric acid receptor subunit alpha-1 (Rattus norvegicus, UniProt P62813); type: functional
[7] = molecular target: T3, Progesterone receptor (Homo sapiens, UniProt P06401); type: functional
T3 sequence (P06401 whole entry): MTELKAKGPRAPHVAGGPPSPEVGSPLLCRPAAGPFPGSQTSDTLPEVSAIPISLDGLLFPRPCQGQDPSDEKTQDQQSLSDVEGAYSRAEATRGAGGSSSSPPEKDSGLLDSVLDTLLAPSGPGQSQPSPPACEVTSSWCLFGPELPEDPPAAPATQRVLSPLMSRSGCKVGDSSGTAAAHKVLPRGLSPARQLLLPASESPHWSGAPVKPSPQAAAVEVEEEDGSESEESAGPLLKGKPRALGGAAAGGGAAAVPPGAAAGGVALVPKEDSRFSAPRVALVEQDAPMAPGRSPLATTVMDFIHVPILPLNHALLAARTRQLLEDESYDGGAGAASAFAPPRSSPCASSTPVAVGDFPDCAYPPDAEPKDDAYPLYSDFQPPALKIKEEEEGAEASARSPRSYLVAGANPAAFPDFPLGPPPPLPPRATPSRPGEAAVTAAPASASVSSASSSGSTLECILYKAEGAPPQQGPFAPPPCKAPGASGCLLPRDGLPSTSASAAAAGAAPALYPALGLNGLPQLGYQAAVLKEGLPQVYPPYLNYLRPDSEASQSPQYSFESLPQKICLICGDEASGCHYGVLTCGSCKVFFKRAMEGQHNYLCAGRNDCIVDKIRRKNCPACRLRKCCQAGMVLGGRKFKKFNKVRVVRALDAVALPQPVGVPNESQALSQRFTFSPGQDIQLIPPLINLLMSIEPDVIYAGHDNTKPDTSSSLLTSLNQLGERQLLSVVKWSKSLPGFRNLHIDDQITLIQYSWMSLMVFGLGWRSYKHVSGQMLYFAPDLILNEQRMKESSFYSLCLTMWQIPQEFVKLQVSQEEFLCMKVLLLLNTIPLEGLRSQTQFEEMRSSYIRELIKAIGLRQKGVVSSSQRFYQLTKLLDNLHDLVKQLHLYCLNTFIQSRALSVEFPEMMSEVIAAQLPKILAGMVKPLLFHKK

[8] = molecular target: T4, Alpha-2B adrenergic receptor (Homo sapiens, UniProt P18089)
T4 sequence (P18089 whole entry): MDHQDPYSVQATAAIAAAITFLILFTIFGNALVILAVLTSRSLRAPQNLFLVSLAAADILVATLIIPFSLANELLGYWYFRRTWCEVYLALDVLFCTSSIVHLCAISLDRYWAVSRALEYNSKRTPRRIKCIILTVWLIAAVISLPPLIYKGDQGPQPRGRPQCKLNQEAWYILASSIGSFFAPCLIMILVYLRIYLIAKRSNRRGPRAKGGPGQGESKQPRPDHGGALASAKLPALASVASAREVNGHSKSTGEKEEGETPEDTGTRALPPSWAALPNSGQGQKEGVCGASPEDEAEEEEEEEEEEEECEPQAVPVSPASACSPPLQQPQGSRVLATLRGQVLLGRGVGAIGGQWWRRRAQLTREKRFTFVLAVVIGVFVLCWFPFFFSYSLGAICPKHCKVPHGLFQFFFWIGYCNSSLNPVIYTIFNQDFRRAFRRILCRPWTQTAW
Further: assay procedure not described here.

Vasopressin V1a receptor, sequence (P37288 whole entry): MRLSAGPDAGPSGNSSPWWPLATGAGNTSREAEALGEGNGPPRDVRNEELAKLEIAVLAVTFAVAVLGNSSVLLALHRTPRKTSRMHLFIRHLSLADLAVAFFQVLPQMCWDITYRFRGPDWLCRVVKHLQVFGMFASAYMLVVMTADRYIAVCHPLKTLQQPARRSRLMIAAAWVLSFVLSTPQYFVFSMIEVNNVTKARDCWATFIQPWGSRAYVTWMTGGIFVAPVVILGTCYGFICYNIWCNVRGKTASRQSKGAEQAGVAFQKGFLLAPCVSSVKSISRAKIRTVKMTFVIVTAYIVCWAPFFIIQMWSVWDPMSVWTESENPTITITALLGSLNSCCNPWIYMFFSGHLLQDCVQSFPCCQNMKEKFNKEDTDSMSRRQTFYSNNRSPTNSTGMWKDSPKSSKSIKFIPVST
Vascular endothelial growth factor receptor 2, sequence (P35968 whole entry): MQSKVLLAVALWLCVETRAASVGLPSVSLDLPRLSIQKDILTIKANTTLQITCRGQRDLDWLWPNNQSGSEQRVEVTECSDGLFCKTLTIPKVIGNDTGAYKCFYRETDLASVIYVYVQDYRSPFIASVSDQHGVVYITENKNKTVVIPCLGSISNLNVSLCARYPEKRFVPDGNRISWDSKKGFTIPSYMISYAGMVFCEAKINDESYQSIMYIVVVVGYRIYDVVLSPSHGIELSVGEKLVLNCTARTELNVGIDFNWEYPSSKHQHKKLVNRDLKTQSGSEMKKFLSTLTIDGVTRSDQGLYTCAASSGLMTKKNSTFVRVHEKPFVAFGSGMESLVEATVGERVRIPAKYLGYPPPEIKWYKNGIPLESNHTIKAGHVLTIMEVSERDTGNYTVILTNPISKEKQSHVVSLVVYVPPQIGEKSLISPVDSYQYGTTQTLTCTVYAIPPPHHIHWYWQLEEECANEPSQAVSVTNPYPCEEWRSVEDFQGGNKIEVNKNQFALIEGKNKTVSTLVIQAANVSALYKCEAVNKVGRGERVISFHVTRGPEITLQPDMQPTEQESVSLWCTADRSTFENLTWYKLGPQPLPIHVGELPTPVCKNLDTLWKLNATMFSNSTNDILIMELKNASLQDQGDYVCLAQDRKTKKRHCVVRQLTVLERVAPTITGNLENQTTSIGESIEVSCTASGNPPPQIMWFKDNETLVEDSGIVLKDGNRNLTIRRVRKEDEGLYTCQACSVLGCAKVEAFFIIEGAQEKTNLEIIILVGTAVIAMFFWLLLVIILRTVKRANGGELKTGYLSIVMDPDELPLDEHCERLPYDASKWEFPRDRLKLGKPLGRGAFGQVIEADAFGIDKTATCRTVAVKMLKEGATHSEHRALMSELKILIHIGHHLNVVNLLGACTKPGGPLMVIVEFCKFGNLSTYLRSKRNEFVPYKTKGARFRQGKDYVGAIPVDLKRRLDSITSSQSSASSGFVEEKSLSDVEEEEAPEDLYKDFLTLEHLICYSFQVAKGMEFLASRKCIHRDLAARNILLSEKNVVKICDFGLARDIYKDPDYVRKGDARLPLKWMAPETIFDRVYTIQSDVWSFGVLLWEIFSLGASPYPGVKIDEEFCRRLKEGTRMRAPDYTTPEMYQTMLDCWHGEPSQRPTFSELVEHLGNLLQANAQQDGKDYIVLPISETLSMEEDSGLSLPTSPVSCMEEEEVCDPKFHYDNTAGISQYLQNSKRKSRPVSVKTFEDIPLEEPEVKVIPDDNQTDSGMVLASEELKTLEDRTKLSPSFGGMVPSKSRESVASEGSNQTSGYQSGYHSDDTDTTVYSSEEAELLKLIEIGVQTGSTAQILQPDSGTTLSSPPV
Beta-1 adrenergic receptor, sequence (P08588 whole entry): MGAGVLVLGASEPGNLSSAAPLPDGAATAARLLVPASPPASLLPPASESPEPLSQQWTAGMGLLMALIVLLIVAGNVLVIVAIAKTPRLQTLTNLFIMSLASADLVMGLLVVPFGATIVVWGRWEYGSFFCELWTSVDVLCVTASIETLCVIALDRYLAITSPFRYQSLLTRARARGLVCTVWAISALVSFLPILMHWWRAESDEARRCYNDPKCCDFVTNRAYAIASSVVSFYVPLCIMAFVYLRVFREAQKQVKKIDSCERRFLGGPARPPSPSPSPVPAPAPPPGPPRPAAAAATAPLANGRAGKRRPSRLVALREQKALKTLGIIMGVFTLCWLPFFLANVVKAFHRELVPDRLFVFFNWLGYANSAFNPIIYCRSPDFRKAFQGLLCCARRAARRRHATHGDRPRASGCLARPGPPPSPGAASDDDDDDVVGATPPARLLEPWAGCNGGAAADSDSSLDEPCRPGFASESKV
Gamma-aminobutyric acid receptor subunit alpha-1, sequence (P62813 whole entry): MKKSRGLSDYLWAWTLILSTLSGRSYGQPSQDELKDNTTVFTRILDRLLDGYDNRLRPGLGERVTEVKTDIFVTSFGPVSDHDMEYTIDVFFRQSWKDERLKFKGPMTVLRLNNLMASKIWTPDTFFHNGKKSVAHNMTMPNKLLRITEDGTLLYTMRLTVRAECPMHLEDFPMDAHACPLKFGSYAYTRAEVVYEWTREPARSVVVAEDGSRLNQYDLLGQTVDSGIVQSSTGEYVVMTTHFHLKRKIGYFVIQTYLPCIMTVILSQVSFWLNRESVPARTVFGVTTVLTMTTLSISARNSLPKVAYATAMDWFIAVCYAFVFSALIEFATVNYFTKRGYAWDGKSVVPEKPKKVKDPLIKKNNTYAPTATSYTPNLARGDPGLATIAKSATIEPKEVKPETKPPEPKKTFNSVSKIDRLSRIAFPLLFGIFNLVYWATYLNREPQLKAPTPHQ

Row | SMILES | AC50 [1] [µM] | AC50 [2] [µM] | AC50 [3] [µM] | AC50 [4] [µM] | AC50 [5] [µM] | AC50 [6] [µM] | AC50 [7] [µM] | AC50 [8] [µM]
1 | NCC(CC(=O)O)c1ccccc1 (configuration not stated) [PHENIBUT] | > 30 | > 30 | > 30 | – | – | – | – | –
2 | Cc1cnc(C(=O)NCCc2ccc(S(=O)(=O)NC(=O)NC3CCCCC3)cc2)cn1 [GLIPIZIDE] | – | > 30 | > 30 | > 10 | > 10 | – | – | –
3 | CCCN[C@H]1CCc2nc(N)sc2C1 [PRAMIPEXOLE] | – | – | – | > 30 | > 30 | > 10 | > 30 | –
4 | COc1ccc(CN(CCN(C)C)c2ccccn2)cc1 [PYRILAMINE] | > 30 | > 30 | > 30 | – | – | – | – | –
5 | C=CCSCC1Nc2cc(Cl)c(S(N)(=O)=O)cc2S(=O)(=O)N1 (configuration not stated) [ALTHIAZIDE] | > 30 | > 30 | > 30 | – | – | – | – | –
6 | NC(=O)OCC(O)COc1ccc(Cl)cc1 (configuration not stated) [CHLORPHENESIN CARBAMATE] | > 30 | > 30 | > 30 | – | – | – | – | –
7 | C[C@H](Cc1cc2c(c(C(N)=O)c1)N(CCCO)CC2)NCCOc1ccccc1OCC(F)(F)F [SILODOSIN] | > 30 | > 30 | > 30 | – | – | – | – | –
8 | [H]/N=C(/N)N/C(=N/[H])NCCc1ccccc1 [PHENFORMIN] | – | – | – | > 10 | > 30 | > 10 | – | 15
9 | Cc1cc(C(C)(C)C)cc(C)c1CC1=NCCN1 [XYLOMETAZOLINE] | – | – | – | > 30 | > 30 | > 30 | > 30 | 0.208
10 | C=C1CC[C@H](O)C/C1=C/C=C1\CCC[C@]2(C)[C@@H]([C@H](C)/C=C/[C@H](C)C(C)C)CC[C@@H]12 [ERGOCALCIFEROL] | – | > 30 | > 30 | – | – | – | – | –
11 | O=C(O)c1cn(C2CC2)c2cc(N3CCNCC3)c(F)cc2c1=O [CIPROFLOXACIN] | – | – | > 30 | – | > 10 | – | – | –
12 | CCN(CCCc1ccccc1)CCCc1ccccc1 [ALVERINE] | > 30 | > 30 | > 30 | – | – | – | – | –
13 | CC(C(=O)O)c1ccc(-c2ccccc2)c(F)c1 (configuration not stated) [FLURBIPROFEN] | – | > 30 | > 30 | > 10 | > 10 | > 10 | – | –
14 | CCN(CC)C(=S)S [DITIOCARB] | – | > 30 | > 1 | – | – | – | – | –
15 | CC(N)Cc1ccc(O)cc1 (configuration not stated) [HYDROXYAMPHETAMINE] | > 30 | > 30 | > 30 | – | – | – | – | –
16 | Cc1cc2cc3c(C)cc(=O)oc3c(C)c2o1 [TRIOXSALEN] | – | – | – | > 10 | – | > 10 | > 30 | –
17 | CCCC(CCC)C(N)=O [VALPROMIDE] | – | – | – | > 10 | – | > 10 | – | > 10
18 | CCOC(=O)C1=C(C)NC(C)=C(C(=O)OC)C1c1cccc([N+](=O)[O-])c1 (configuration not stated) [NITRENDIPINE] | – | – | – | > 10 | > 30 | > 10 | – | –
19 | CCOC(=O)[C@H](CCc1ccccc1)N[C@@H](C)C(=O)N(CC(=O)O)C1Cc2ccccc2C1 | > 30 | > 30 | > 30 | – | – | – | – | –

Row | SMILES | AC50 [1] [µM] | AC50 [2] [µM] | AC50 [3] [µM] | AC50 [4] [µM] | AC50 [5] [µM] | AC50 [6] [µM] | AC50 [7] [µM] | AC50 [8] [µM]
20 | OC1(c2ccc(Cl)cc2)c2ccccc2C2=NCCN21 (configuration not stated) [MAZINDOL] | – | – | – | > 30 | > 30 | > 30 | > 30 | > 30
21 | CC(CCc1ccc(O)cc1)NCCc1ccc(O)c(O)c1 (configuration not stated) [DOBUTAMINE] | – | – | – | 5.58 | > 30 | > 30 | > 30 | –
22 | CCCCC1C(=O)N(c2ccccc2)N(c2ccccc2)C1=O [PHENYLBUTAZONE] | – | – | – | > 10 | > 30 | > 10 | > 10 | –
23 | CCOC(=O)N1CSC[C@H]1C(=O)O [TELMESTEINE] | > 30 | > 30 | > 30 | – | – | – | – | –
24 | CC(C)N(CCNC(=O)CN1CCCC1=O)C(C)C | > 30 | > 30 | > 30 | – | – | – | – | –
25 | CN1C(=O)/C(=N\NC(N)=S)c2ccccc21 [METHISAZONE] | > 10 | > 30 | > 10 | – | – | – | – | –
26 | CC(C)(C)NC[C@H](O)COc1cccc2c1CCCC2=O [LEVOBUNOLOL] | > 30 | > 30 | > 30 | – | – | – | – | –
27 | CC12CC3CC(C)(C1)CC(N)(C3)C2 [MEMANTINE] | – | – | – | > 10 | > 30 | > 10 | – | > 10
28 | c1ccc2c(c1)CCc1ccccc1N2C1CN2CCC1CC2 (configuration not stated) [QUINUPRAMINE] | > 30 | > 30 | > 30 | – | – | – | – | –
29 | Cc1noc(NS(=O)(=O)c2ccc(N)cc2)c1C [SULFISOXAZOLE] | – | – | – | > 10 | – | > 10 | > 10 | –
30 | CCCCC(=O)O[C@]1(C(=O)CO)[C@@H](C)C[C@H]2[C@@H]3CCC4=CC(=O)C=C[C@]4(C)[C@@]3(F)[C@@H](O)C[C@@]21C [BETAMETHASONE VALERATE] | – | – | – | > 10 | – | > 10 | – | > 10
31 | CC(C)NCC(O)c1ccc(O)c(O)c1 (configuration not stated) [ISOPROTERENOL] | – | – | – | – | > 10 | > 10 | > 30 | –
32 | CC[C@@H]([C@H](C)O)n1ncn(-c2ccc(N3CCN(c4ccc(OC[C@@H]5CO[C@@](Cn6cncn6)(c6ccc(F)cc6F)C5)cc4)CC3)cc2)c1=O [POSACONAZOLE] | – | > 30 | > 1 | – | – | – | > 30 | > 30
33 | CNC1=Nc2ccc(Cl)cc2C(c2ccccc2)=[N+]([O-])C1 [CHLORDIAZEPOXIDE] | – | – | – | > 10 | – | 0.79 | – | –
34 | CCC[C@H](NC(=O)[C@@H]1[C@H]2CCC[C@H]2CN1C(=O)[C@@H](NC(=O)[C@@H](NC(=O)c1cnccn1)C1CCCCC1)C(C)(C)C)C(=O)C(=O)NC1CC1 | – | – | – | > 10 | > 10 | > 10 | – | > 10
35 | CN(C)CCCNc1c2ccccc2nc2cccc([N+](=O)[O-])c12 [NITRACRINE] | – | – | – | > 30 | > 30 | 18 | > 30 | 22
36 | CN1CCC(=C2c3ccccc3CCc3cccnc32)CC1 [AZATADINE] | – | – | – | > 10 | > 30 | > 10 | – | > 10
37 | CC(N)C(O)c1ccccc1 (configuration not stated) [PHENYLPROPANOLAMINE] | – | – | – | > 10 | > 30 | > 10 | – | > 10
38 | CC(C(=O)O)c1ccc(CC2CCCC2=O)cc1 (configuration not stated) [LOXOPROFEN] | – | – | – | > 30 | – | > 30 | – | –
